Measured values: PubChem BioAssay (NCI)
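Dose response: 5 concentrations. Exposure: 48 h. Format: 96-well plates. Endpoint: linear interpolation; highest concentration if not reached. GI50 is the concentration that inhibits growth by half. TGI is the concentration that stops growth completely.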

Columns and labels:
Assay in all cases: NCI anticancer screen, dose series, 48 h
[1] = system: DU-145 prostate
[2] = system: COLO 205 colon
[3] = system: MOLT-4 leukemia
[4] = system: HCT-116 colon
[5] = system: BT-549 breast
[6] = system: NCI-H226 lung
[7] = system: TK-10 renal
[8] = system: SK-MEL-28 melanoma
[9] = system: 786-0 renal
[10] = system: T-47D breast
[11] = system: MDA-N
[12] = system: SF-268 CNS
[13] = system: HT29 colon
[14] = system: UACC-62 melanoma
[15] = system: M14 melanoma
[16] = system: KM12 colon
[17] = system: UO-31 renal
[18] = system: SK-MEL-5 melanoma
[19] = system: HCC-2998 colon
[20] = system: OVCAR-8 ovarian
[21] = system: PC-3 prostate
[22] = system: SNB-75 CNS
[23] = system: IGROV1 ovarian
[24] = system: HOP-62 NSCLC
[25] = system: NCI-H23 lung
[26] = system: A498 renal
[27] = system: OVCAR-4 ovarian
[28] = system: LOX IMVI melanoma
[29] = system: OVCAR-3 ovarian
[30] = system: SF-539 CNS
[31] = system: EKVX NSCLC
[32] = system: HCT-15 colon
[33] = system: HS 578T breast
[34] = system: MCF7 breast
[35] = system: RPMI-8226 leukemia
[36] = system: RXF 393 renal
[37] = system: OVCAR-5 ovarian
[38] = system: HOP-92 NSCLC
[39] = system: NCI-H522 lung
[40] = system: SF-295 CNS
[41] = system: MDA-MB-435
[42] = system: SN12C renal
[43] = system: NCI/ADR-RES ovarian
[44] = system: SK-OV-3 ovarian
[45] = system: HL-60(TB) leukemia
[46] = system: NCI-H460 lung
[47] = system: U251 CNS
[48] = system: SW-620 colon
[49] = system: MDA-MB-231 breast
[50] = system: CCRF-CEM leukemia
[51] = system: CAKI-1 renal
[52] = system: MALME-3M melanoma
[53] = system: UACC-257 melanoma
[54] = system: A549 NSCLC
[55] = system: ACHN renal
[56] = system: K-562 leukemia
[57] = system: SR leukemia
[58] = system: SNB-19 CNS

CCNc1cc2c(cc1O)CC[C@@H]1[C@@H]2CC[C@]2(C)[C@@H](O)CC[C@@H]12
GI50 [1]: 3.84 µM
TGI [1]: 20.5 µM
TGI [2]: 27.8 µM
TGI [3]: 46.7 µM
GI50 [4]: 3.1 µM
TGI [4]: 18.7 µM
TGI [5]: 43.3 µM
TGI [6]: 21.6 µM
TGI [7]: 34 µM
TGI [8]: 24.5 µM
TGI [9]: 25.3 µM
TGI [10]: > 55.3 µM
TGI [11]: 2.14 µM
TGI [12]: 37.9 µM
TGI [13]: 33.7 µM
TGI [14]: > 35 µM
TGI [15]: 18.9 µM
TGI [16]: 22.4 µM
TGI [17]: 24.3 µM
TGI [18]: 11.8 µM
TGI [19]: 7.33 µM
TGI [20]: 24.1 µM
TGI [21]: 22.8 µM
TGI [22]: 11.4 µM
TGI [23]: 33.2 µM
GI50 [24]: 0.584 µM
TGI [24]: 23.2 µM
TGI [25]: 28.7 µM
TGI [26]: 6.16 µM
TGI [27]: 21.5 µM
TGI [28]: 20.3 µM
GI50 [29]: 0.815 µM
TGI [29]: 3.63 µM
GI50 [30]: 0.741 µM
TGI [30]: 15.5 µM
TGI [31]: 34.8 µM
TGI [32]: 15 µM
TGI [33]: 35 µM
TGI [34]: 25 µM
TGI [35]: 63.5 µM
TGI [36]: 20.6 µM
TGI [37]: 34.7 µM
TGI [38]: 22.4 µM
TGI [39]: 11.8 µM
TGI [40]: 13.3 µM
GI50 [41]: 0.0515 µM
TGI [41]: 0.712 µM
TGI [42]: 29.1 µM
TGI [43]: 20.9 µM
TGI [44]: > 39 µM
TGI [45]: 8.12 µM
TGI [46]: 13.7 µM
TGI [47]: 18.5 µM
TGI [48]: 19 µM
TGI [49]: 24.9 µM
TGI [50]: > 100 µM
TGI [51]: 27.2 µM
TGI [52]: 17.5 µM
TGI [53]: 25 µM
TGI [54]: 54.6 µM
TGI [55]: 22 µM
TGI [56]: > 41.4 µM
TGI [57]: 41.2 µM
TGI [58]: > 46.1 µM
